Assay results: ChEMBL document CHEMBL1140272, “Discovery of potent and use-dependent sodium channel blockers for treatment of chronic pain” (Bioorg Med Chem Lett, 2005)

Columns and labels:
[1] = target: T1, Sodium channel protein type 9 subunit alpha (Homo sapiens, UniProt Q15858); assay: In vitro inhibitory concentration against Na v1.7 channel expressed in HEK293 cells using Voltage/Ion Probe Reader (VIPR) assay; assay type: cell-based
Target sequence in this assay (Q15858 whole entry): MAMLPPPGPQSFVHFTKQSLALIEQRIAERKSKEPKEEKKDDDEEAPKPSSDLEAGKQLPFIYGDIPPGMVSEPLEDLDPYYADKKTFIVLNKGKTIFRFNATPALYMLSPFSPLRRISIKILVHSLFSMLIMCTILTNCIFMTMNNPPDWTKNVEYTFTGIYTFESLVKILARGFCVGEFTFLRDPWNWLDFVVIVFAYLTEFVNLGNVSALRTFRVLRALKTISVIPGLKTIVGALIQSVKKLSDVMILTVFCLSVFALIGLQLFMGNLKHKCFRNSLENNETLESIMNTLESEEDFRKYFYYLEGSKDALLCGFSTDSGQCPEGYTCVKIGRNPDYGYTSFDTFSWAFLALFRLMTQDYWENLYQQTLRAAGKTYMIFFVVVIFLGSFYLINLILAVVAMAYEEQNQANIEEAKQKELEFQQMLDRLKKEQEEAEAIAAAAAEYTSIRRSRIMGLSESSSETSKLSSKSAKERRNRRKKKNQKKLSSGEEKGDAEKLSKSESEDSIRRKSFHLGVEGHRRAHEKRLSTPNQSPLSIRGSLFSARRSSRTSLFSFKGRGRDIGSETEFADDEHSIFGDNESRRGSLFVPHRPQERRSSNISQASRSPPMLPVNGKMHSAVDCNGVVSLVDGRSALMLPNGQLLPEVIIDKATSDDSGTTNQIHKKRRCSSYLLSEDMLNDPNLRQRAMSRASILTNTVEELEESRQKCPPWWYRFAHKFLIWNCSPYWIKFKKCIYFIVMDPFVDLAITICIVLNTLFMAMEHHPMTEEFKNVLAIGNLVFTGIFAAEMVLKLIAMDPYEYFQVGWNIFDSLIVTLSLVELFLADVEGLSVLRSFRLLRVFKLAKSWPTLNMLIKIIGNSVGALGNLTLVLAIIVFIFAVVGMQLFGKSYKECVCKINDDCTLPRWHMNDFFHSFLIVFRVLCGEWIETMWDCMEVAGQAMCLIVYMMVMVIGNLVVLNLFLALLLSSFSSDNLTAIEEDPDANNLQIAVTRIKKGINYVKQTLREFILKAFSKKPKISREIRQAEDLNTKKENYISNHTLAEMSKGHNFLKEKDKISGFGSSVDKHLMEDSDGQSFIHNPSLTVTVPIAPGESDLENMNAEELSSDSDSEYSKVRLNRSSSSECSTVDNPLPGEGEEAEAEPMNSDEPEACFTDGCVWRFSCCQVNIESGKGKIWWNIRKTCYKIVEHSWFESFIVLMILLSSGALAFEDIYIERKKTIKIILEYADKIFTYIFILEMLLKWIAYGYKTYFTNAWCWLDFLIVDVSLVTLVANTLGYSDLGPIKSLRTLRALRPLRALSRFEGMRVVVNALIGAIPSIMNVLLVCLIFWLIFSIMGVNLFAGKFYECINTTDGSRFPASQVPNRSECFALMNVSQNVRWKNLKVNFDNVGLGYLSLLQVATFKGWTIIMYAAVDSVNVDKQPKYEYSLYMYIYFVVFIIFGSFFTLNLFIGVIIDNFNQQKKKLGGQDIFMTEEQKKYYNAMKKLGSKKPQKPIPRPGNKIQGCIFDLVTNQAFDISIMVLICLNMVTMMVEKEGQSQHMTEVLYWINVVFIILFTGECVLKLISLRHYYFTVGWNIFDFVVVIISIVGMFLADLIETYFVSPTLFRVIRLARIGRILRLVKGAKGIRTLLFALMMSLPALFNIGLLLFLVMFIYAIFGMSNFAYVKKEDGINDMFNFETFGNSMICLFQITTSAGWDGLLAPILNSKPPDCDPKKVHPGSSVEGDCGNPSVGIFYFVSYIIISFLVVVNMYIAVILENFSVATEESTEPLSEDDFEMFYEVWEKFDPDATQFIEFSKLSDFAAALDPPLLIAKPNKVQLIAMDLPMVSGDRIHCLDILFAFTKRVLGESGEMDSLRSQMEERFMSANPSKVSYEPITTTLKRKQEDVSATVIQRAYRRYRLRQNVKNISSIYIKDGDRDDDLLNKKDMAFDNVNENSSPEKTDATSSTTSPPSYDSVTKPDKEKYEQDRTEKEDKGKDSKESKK

hERG (KCNH2) = hERG (KCNH2) (Homo sapiens, UniProt Q12809); assay: Percent inhibition against displacement of 35[S] MK-499 binding to hERG channel expressed in HEK293 cells at a concentration of 10 uM; assay type: cell-based; settings: HEK293 cells that express hERG, probe [35S]MK-499
[2] = target: T1, Sodium channel protein type 9 subunit alpha; assay: In vitro inhibitory concentration against Na v1.7 channel electrophysiology in inactivated state expressed in HEK293 cells using Voltage/Ion Probe Reader (VIPR) assay; assay type: cell-based
Target sequence in this assay (Q15858 whole entry): as above

[3] = target: T1, Sodium channel protein type 9 subunit alpha; assay: In vitro inhibitory concentration against Na v1.7 channel electrophysiology in resting state expressed in HEK293 cells using Voltage/Ion Probe Reader (VIPR) assay; assay type: functional, cell-based
Target sequence in this assay (Q15858 whole entry, looked up): as the sequence (Q15858 whole entry) above

Rattus norvegicus = assay: Percent formalin paw response in rat at (10-40 min, 3 mg/kg, iv); assay type: functional
[4] = Bioavailability in rat; assay type: ADME, organism-based; settings: in vivo
[5] = Half-life in rat was determined; assay type: ADME; settings: in vivo
[6] = Clearance rate in rat was determined; assay type: ADME, organism-based; settings: plasma, read-out: Clp
[7] = target: T2, Voltage-gated inwardly rectifying potassium channel KCNH2 (Homo sapiens, UniProt Q12809)
Description: In vitro inhibitory concentration against displacement of 35[S] MK-499 binding to hERG channel expressed in HEK293 cells

[8] = target: T2, Voltage-gated inwardly rectifying potassium channel KCNH2; assay: In vivo inhibitory concentration against displacement of 35[S] MK-499 binding to hERG channel expressed in HEK293 cells; assay type: organism-based
[9] = target: T1, Sodium channel protein type 9 subunit alpha; assay: In vivo inhibitory concentration against Na v1.7 channel expressed in HEK293 cells using Voltage/Ion Probe Reader (VIPR) assay; assay type: organism-based
Target sequence in this assay (Q15858 whole entry): as above

[10] = target: T1, Sodium channel protein type 9 subunit alpha; settings: HEK293
Target sequence in this assay (Q15858 whole entry, looked up): as the sequence (Q15858 whole entry) above

hERG (KCNH2), sequence (Q12809 whole entry): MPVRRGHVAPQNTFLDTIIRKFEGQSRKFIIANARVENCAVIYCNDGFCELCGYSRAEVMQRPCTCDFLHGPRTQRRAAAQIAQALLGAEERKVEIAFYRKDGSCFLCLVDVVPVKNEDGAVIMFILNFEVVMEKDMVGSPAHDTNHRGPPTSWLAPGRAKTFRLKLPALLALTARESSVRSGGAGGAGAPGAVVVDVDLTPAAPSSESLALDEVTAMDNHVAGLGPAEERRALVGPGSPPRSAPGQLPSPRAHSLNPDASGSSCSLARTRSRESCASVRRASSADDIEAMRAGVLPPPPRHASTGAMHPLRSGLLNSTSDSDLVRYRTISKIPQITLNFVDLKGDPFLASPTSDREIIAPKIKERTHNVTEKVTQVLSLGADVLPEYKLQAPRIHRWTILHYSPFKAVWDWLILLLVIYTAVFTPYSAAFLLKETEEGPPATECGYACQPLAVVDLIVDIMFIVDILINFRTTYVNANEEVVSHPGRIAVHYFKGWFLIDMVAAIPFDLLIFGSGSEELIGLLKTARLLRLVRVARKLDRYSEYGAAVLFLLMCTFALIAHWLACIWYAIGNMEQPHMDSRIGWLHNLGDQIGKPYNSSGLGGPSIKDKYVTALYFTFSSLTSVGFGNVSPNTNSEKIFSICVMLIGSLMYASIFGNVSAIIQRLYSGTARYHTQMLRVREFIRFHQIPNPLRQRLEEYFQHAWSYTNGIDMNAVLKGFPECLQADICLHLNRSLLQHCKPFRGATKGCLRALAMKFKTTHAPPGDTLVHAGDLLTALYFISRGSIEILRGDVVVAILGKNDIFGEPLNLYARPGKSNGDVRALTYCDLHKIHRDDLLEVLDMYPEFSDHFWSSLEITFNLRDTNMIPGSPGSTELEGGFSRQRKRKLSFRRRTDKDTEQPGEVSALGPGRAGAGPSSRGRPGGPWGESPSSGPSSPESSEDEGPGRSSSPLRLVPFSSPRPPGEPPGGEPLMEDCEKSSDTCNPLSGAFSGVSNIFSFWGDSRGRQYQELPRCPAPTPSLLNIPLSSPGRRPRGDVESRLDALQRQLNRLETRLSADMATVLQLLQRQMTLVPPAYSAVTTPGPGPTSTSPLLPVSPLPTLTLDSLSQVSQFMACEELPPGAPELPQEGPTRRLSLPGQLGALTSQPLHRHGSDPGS
T2 sequence (Q12809 whole entry): as above

| IC50 [1] | Structure (SMILES) | inhibition at 10 µM (hERG (KCNH2)) | further results |
| --- | --- | --- | --- |
| 40 µM | O=C(c1ccccc1OCc1csc(-c2ccc(Cl)cc2)n1)N1CCCCCC1 | 90% |  |
| 7.4 µM | O=C(c1ccccc1OCc1csc(-c2ccc(Cl)cc2)n1)N1CCCCC1 | 89% |  |
| 2.9 µM | Clc1ccc(-c2nc(COc3ccccc3CN3CCCCCCC3)cs2)cc1 |  |  |
| 3.8 µM | COc1cccc(CN2CCCCCCC2)c1OCc1csc(-c2ccc(Cl)cc2)n1 |  |  |
| 19.4 µM | COc1cccc(C(=O)N2CCCCCCC2)c1OCc1csc(-c2ccc(Cl)cc2)n1 | 88% |  |
| 1 µM | O=C(c1ccccc1OCc1csc(-c2ccc(Cl)cc2)n1)N1CCCC1 | 63% | IC50 [8]: 9.8 µM; IC50 [9]: 1 µM; Ki [2]: 0.16 µM; Activity (Rattus norvegicus): 65%; bioavailability [4]: 17%; half-life [5]: 26.4 min; clearance [6]: 627 mL/min/kg; KR [10]: 6.7 µM |
| 29 µM | O=C(c1ccccc1OCc1csc(-c2ccc(Cl)cc2)n1)N1CCCCCCC1 | 90% |  |
| 4 µM | COc1cccc(CN2CCCCCCC2)c1OCc1csc(-c2ccccc2)n1 |  | IC50 [7]: 0.18 µM |

The next lines start with the compound.

| Structure (SMILES) | IC50 [1] | inhibition at 10 µM (hERG (KCNH2)) | further results |
| --- | --- | --- | --- |
| COc1cccc(C(=O)N2CCCC2)c1OCCc1ccccc1 | > 30 µM |  |  |
| Cc1cccc(C(=O)N2CCCC2)c1OCc1csc(-c2ccc(Cl)cc2)n1 | 0.55 µM |  |  |
| COc1cccc(C(=O)N2CCCC2)c1OCCCc1ccccc1 | 21 µM |  |  |
| COc1cccc(C(=O)N2CCCC2)c1OCc1ccc(C(C)(C)C)cc1 | 90 µM |  |  |
| COc1cccc(C(=O)N2CCCC2)c1OCc1ccc(-c2ccccc2)cc1 | 4 µM |  |  |
| COc1cccc(C(=O)N2CCCCC2)c1OCc1csc(-c2ccc(Cl)cc2)n1 | 3.7 µM | 63% |  |
| COc1cccc(C(=O)N2CCCC2)c1OCc1csc(-c2ccc(Cl)cc2)n1 | 1.3 µM | 50% | Ki [2]: 0.14 µM; IC50 ([1]; hek293): 1.3 µM; KR [3]: 10 µM; Activity (Rattus norvegicus): 68%; bioavailability [4]: 9.4%; half-life [5]: 28.8 min; clearance [6]: 101 mL/min/kg; IC50 [7]: 7.7 µM |
| COc1cccc(C(=O)N2CCCC2)c1OC(C)c1csc(-c2ccc(Cl)cc2)n1 (stereo not given) | 2.2 µM |  |  |
| CC(C)Oc1cccc(C(=O)N2CCCC2)c1OCc1csc(-c2ccc(Cl)cc2)n1 | 7.5 µM |  |  |
| COc1cccc(C(=O)N2CCCC2)c1OCc1ccc(-c2cccs2)s1 | 0.55 µM |  |  |
| CCOc1cccc(C(=O)N2CCCC2)c1OCc1csc(-c2ccc(Cl)cc2)n1 | 6.6 µM |  |  |
| O=C(c1cccc(Cl)c1OCc1csc(-c2ccc(Cl)cc2)n1)N1CCCC1 | 0.73 µM |  |  |
| COc1cccc(C(=O)N2CCCC2)c1OCc1nc(-c2ccc(Cl)cc2)no1 | 0.86 µM |  |  |
| O=C(c1cccc(O)c1OCc1csc(-c2ccc(Cl)cc2)n1)N1CCCC1 | > 30 µM |  |  |
| COc1cccc(C(=O)N2CCCCCC2)c1OCc1csc(-c2ccc(Cl)cc2)n1 | 6.5 µM | 85% |  |
| COc1cccc(C(=O)N2CCCC2)c1OC(C)c1ccccc1 (stereo not given) | > 30 µM |  |  |
| CC(C)(C)Oc1cccc(C(=O)N2CCCC2)c1OCc1csc(-c2ccc(Cl)cc2)n1 | 22 µM |  |  |
